Holding throughout (assay): inhibition of tumour cell growth, NCI panel, 48 h
Assay [1] concerns DMS 273 small cell lung.
Assay [2] deals with DU-145 prostate.
Assay [3] has as its system LXFL 529 NSCLC.
Assay [4] relates to M19-MEL melanoma.
Assay [5] has as its system MDA-MB-231 breast.
The test system of assay [6] is SNB-78 CNS.
The subject of assay [7] is T-47D breast.
Assay [8] deals with XF 498 CNS.
Assay [9] relates to DMS 114 small cell lung.

Several values for one entry are separate records, joined by “and”; a condition that tells them apart may be missing. Identical values can stand only once.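 48-hour exposure; five concentrations; linearly interpolated endpoints. GI50: concentration for 50% inhibition of growth. The concentration for full growth arrest is given as TGI.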

For `CC[C@@]1(O)C(=O)OCc2c1cc1n(c2=O)Cc2cc3cc(N)ccc3nc2-1`, the GI50 in [1] was 0.00263 µM; in assay [2] it was 0.0144 µM; in assay [3], 0.204 µM; in [5], 0.199 µM and 0.345 µM; in assay [6], 0.0463 µM and 0.212 µM; in assay [7], 0.0476 µM. The GI50 in assay [8] was 0.149 µM and 0.138 µM. Moreover, the TGI is 0.129 µM and 0.179 µM in assay [1]; 3.15 µM in assay [3]; 0.289 µM and 0.222 µM in assay [4]; 3.11 µM in assay [5]; 1.39 µM and 0.864 µM in [8].

For `CN=C1SC(=Nc2ccc(N(C)C)cc2)N1C`, the TGI in assay [9] was 60.3 µM; in assay [1] it was > 100 µM; in assay [3] it was > 100 µM; in [4], > 100 µM; in [6], > 100 µM.

As to `CC1(C)C2CCC3(C2)CS(=O)(=O)N2OC231` (stereo not given), the TGI in [9] is 26.8 µM; in assay [1], 58.5 µM; in assay [3], 30.6 µM; in [4] it was 29.8 µM; in [6] it was 47.2 µM.

With `O=[N+]([O-])c1nccn1COCCBr`, the TGI in assay [9], in assay [3], in assay [4] and in [8] was > 100 µM throughout.

Turning to `CN[C@@H]1C[C@H]2O[C@@](C)([C@@H]1OC)n1c3ccccc3c3c4c(c5c6ccccc6n2c5c31)C(=O)N[C@@H]4O`, the TGI in [9] came to 1.58 µM; in assay [1], 0.637 µM; in assay [2], 1.16 µM; in assay [3] it was 0.549 µM; in assay [4] it was 4.99 µM; in assay [5], 0.202 µM. The TGI in [6] was 0.225 µM; in [8], 0.463 µM.

Turning to `O=c1ccc(=O)c2c(=O)c3ccccc3c(=O)c1=2`, the TGI was 95.1 µM in assay [9]; > 100 µM in [1]; > 100 µM in assay [3]; 36.8 µM in assay [4]; > 100 µM in [6]; > 100 µM in [8].

Consider `O=C1C2Cc3ccccc3CN2C(=O)N1CCN1CCCC1` (stereo not given), for which the TGI in [9], in assay [1], in [3], in assay [4] and in assay [8] was > 100 µM in each case.

For `O=Cc1ccc(-c2cccs2)s1`, the TGI in assay [9] is > 100 µM; in assay [1], > 100 µM; in assay [2], > 100 µM; in assay [3], 4.51 µM; in assay [4], > 100 µM; in [5], > 100 µM. The TGI is > 100 µM in [6], > 100 µM in [7] and 11.5 µM in assay [8].

With `O=[N+]([O-])c1ccc2c(c1)[O][Sn]([I])([I])[O]2`, the GI50 in assay [9] is > 100 µM; in assay [1] it was 71.1 µM; in assay [4] it was 85.3 µM; in [6] it was > 100 µM. Besides, the TGI in assay [9], in assay [1], in [4] and in assay [6] was > 100 µM each time.

Consider `CCOC(=O)[C@H]1Nc2ccc(OC)cc2C2c3ccccc3CC21` (stereo not given in full), for which the TGI in [9], in [1], in assay [3], in assay [4], in assay [6] and in [8] was > 100 µM throughout.

With `CCN(CC)c1ccc2c(c1)Nc1cc(=C(C#N)C#N)c3ccccc3c1=N2`, the TGI in [9], in [1], in assay [3], in assay [4], in assay [6] and in assay [8] was > 100 µM each time.

As for `CN1C(=O)C(Cl)(C(Cl)(Cl)S(=O)(=O)O)C(=O)c2ccccc21` (stereo not given), the TGI in assay [3] and in assay [4] was > 100 µM in each case.

Take `O=c1[nH]c(=O)n(C2OC3COC2C3O)cc1F` (stereo not given): the TGI in [1], in assay [3], in assay [6] and in assay [8] was > 100 µM in each case.

With `Cc1cc2c(=O)c3ccccc3[nH]c2c(C(=O)O)c1C`, the TGI in [9], in [1], in assay [3], in [4], in assay [6] and in [8] was > 100 µM each time.

For `COc1ccc2c(c1)[n+]([O-])c(/C(C)=N/NC(=O)CC#N)c[n+]2[O-]`, the TGI in [9], in assay [1], in assay [3], in [4], in assay [6] and in assay [8] was > 100 µM each time.

In the case of `COC(=O)C1=C(CS(=O)c2ccccc2[N+](=O)[O-])ON(C)C1c1ccccc1` (stereo not given), the TGI is 65.5 µM in [9]; > 100 µM in [1]; > 100 µM in [3]; > 100 µM in [4]; > 100 µM in assay [6]; 86.2 µM in [8].

With `CCOC(=O)C(=O)Nc1c(C(C)C)cccc1C(C)C`, the TGI in assay [9], in assay [1], in [3], in [4], in assay [6] and in assay [8] was > 100 µM throughout.

Regarding `Cc1c2cc[n+](C)cc2c(C)c2c1[nH]c1ccc(O)c(OCC(F)(F)F)c12`, the TGI in assay [9] was 8.04 µM; in [1], 8.79 µM; in [3] it was 8.16 µM; in assay [4], 11.8 µM; in assay [6] it was 4.96 µM; in [8], 10.6 µM.

Take `C1=CC=C2NCCOCCNC3=CC=CC=CC3=NCCOCCN=C2C=C1`: the TGI in assay [9], in [1], in [3], in assay [4] and in assay [6] was > 100 µM in each case.

Regarding `CC(=O)O[C@@H]1C2C(=O)OC(=O)C2C2CCC[C@]23O[C@H]13` (stereo not given in full), the TGI in [9], in assay [1], in [3], in assay [4] and in assay [6] was > 100 µM in each case.

The record behind these values is PubChem BioAssay (NCI).
